{"source": "patent US12268683B2", "about": "“Compounds and methods for synergistic activation of M channels” (THE REGENTS OF THE UNIVERSITY OF CALIFORNIA, priority 2018, dated 2025)", "key": {"[1]": {"tested_on": "bacteria", "settings": "read-out: bactericidal activity EC50; cited from earlier work"}, "[2]": {"target": "KCNQ1/KCNE1 (Homo sapiens, UniProt P51787)", "assay": "TEVC of KCNQ1/KCNE1 channels", "assay_type": "cell-based", "from_the_text": "As previously described (12), we generated cRNA transcripts encoding human KCNA1, KCNE1, KCNE2, KCNE3, KCNQ1, KCNQ2, KCNQ3, KCNQ4 or KCNQ5 by in vitro transcription using the T7 polymerase mMessage mMachine kit (Thermo Fisher Scientific), after vector linearization, from cDNA sub-cloned into plasmids incorporating Xenopus laevis β-globin 5′ and 3′ UTRs flanking the coding region to enhance translation and cRNA stability. We quantified cRNA by spectrophotometry. We generated mutant KCNQ2 and KCNQ3 cDNAs by site-directed mutagenesis with a QuikChange kit (Stratagene, San Diego, Calif.) and prepared the cRNAs as above. We injected defolliculated stage V and VI Xenopus laevis oocytes (Ecocyte Bioscience, Austin, Tex. and Xenoocyte, Dexter, Mich., US) with KCNE and/or KCNQ cRNAs (5-20 ng). […]\nWe performed TEVC at room temperature using an OC-725C amplifier (Warner Instruments, Hamden, Conn.) and pClamp10 software (Molecular Devices, Sunnyvale, Calif.) 2-5 days after cRNA injection as described in the section above. […] We recorded currents in response to voltage pulses between −120 or −80 mV and +40 mV at 20 mV intervals from a holding potential of −80 mV, to yield current-voltage relationships, current magnitude, and for quantifying activation rate. We analyzed data using Clampfit (Molecular Devices) and Graphpad Prism software (GraphPad, San Diego, Calif., USA); values are stated as mean±SEM. […]"}, "[3]": {"target": "KCNQ2 (Homo sapiens, UniProt O43526)", "assay": "[3H]GABA competition binding to oocytes expressing KCNQ2", "settings": "100 μM, 10 μM 3H-GABA", "method": "(§1) Each group of oocytes was placed in a round-bottomed, 15-ml falcon tube, washed with ND96, and then resuspended in ND96 containing 10 μM γ-[2,3-^3H(N)]-aminobutyric acid (^3H-GABA) (Perkin Elmer, Waltham, Mass.) at 25-40 Ci/mMol specific activity either alone, or with 100 μM 2FPG or 100 μM 3FMSG, for a 30 minute incubation at room temperature. Oocytes were then washed four times in 16° C. ND96, transferred to individual wells in a 96 well plate and lysed in 0.2% SDS in ND96. Each oocyte lysate was transferred to a scintillation vial containing 5 ml Cytoscint scintillation cocktail fluid (MP Biomedicals, Santa Ana, Calif.). Vials were capped, shaken, and then allowed to sit at room temperature for at least 30 min before scintillation counting in a Beckmann Coulter LS6500 liquid scintillation counter."}, "[4]": {"target": "KCNQ3* (Homo sapiens, UniProt O43525, A315T)", "assay": "[3H]GABA competition binding to oocytes expressing KCNQ3*", "settings": "100 μM, 10 μM 3H-GABA", "method": "as §1"}, "[5]": {"target": "KCNA1 (Homo sapiens, UniProt Q09470)", "sequence (Q09470 whole entry)": "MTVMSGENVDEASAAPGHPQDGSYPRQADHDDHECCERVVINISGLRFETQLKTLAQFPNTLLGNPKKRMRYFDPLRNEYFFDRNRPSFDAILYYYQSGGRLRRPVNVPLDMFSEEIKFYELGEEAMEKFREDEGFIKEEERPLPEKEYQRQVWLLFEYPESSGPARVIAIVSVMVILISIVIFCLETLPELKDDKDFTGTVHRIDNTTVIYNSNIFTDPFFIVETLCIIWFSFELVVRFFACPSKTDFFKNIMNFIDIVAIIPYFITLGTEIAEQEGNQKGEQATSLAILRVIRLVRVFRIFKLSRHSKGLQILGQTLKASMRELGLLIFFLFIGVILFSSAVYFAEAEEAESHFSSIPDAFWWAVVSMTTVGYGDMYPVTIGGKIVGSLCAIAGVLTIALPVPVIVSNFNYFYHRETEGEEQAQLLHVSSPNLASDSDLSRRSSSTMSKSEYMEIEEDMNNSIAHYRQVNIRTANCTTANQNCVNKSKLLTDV", "assay": "TEVC of KCNA1 expressed in Xenopus oocytes", "assay_type": "cell-based", "from_the_text": "cRNA transcripts encoding human KCNA1, KCNQ1, KCNQ2, KCNQ3, KCNQ4, or KCNQ5 were generated by in vitro transcription using the T7 polymerase message machine kit (Thermo Fisher Scientific), after vector linearization, from cDNA sub-cloned into plasmids incorporating X. laevis β-globin 5′ and 3′ UTRs flanking the coding region to enhance translation and cRNA stability. cRNA was quantified by spectrophotometry. Mutant cDNAs were generated by site-directed mutagenesis using a QuikChange kit according to manufacturer's protocol (Stratagene, San Diego, Calif.) and corresponding cRNAs prepared as above. Defolliculated stage V and VI X. laevis oocytes (Ecocyte Bioscience, Austin, Tex.) were injected with Kv channel a subunit cRNAs (10 ng total per oocyte). […]\nTEVC recording was performed at room temperature with an OC-725C amplifier (Warner Instruments, Hamden, Conn.) and pClamp10.2 software (Molecular Devices, Sunnyvale, Calif.) 3-5 days after cRNA injection as described in the section above. […] Currents were recorded in response to pulses between −80 and +40 mV at 20 mV intervals, or a single pulse to +40 mV, from a holding potential of −80 mV, to yield current-voltage relationships, current magnitude, and for quantifying activation rate. […]"}}, "data": [{"smiles": "CCCCCCCCC/C=C/C=O", "note": "[(E)-2-dodecenal]", "values": [{"measurement": "EC50", "setting": "[1]", "result": "> 30000", "unit": "nM"}, {"measurement": "sensitivity of KCNQ1-KCNE1, fold less sensitive than KCNQ1", "setting": "[2]", "result": "> twofold"}, {"measurement": "EC50", "setting": "[2]; read-out: EC50 of KCNQ1/KCNE1 activation", "result": "260 ± 100", "unit": "nM"}]}, {"smiles": "CS(=O)(=O)N(CC(=O)O)c1cccc(F)c1", "note": "[3FMSG]", "values": [{"measurement": "competition with [3H]GABA binding to KCNQ2", "setting": "[3]", "result": "able to compete out GABA binding"}, {"measurement": "competition with [3H]GABA binding to KCNQ3*", "setting": "[4]", "result": "able to compete out GABA binding"}]}, {"smiles": "CC(=O)c1c(O)c(C)c(O)c(Cc2c(O)c3c(c(C(=O)/C=C/c4ccccc4)c2O)OC(C)(C)C=C3)c1O", "note": "[MTX, mallotoxin]", "values": [{"measurement": "effect on KCNA1 (in words)", "setting": "[5]", "result": "no effect"}]}]}
